Data from US8101649B2, “N-acylhydrazone derivatives useful as modulators of nicotinic acetylcholine receptors” (Neurosearch A/S, priority 2007, dated 2012).

Tested on: not given
Experiment: not given
Conditions: not given

Row | Structure (SMILES) | melting point [°C]
1 | O=C(CCc1c[nH]c2ccccc12)N/N=C/c1ccsc1 [Compound 3D, 3-(1H-Indol-3-yl)-propionic acid [1-thiophen-3-yl-meth-(E)-ylidene]-hydrazide] | 145.5 to 148.1
2 | O=C(CCc1c[nH]c2ccccc12)N/N=C/c1ccccc1F [Compound 3E, 3-(1H-Indol-3-yl)-propionic acid [1-(2-fluoro-phenyl)-meth-(E)-ylidene]-hydrazide] | 118 to 123
3 | COc1ccc(/C=N/NC(=O)CCc2c[nH]c3ccccc23)cc1 [Compound 3B, 3-(1H-Indol-3-yl)-propionic acid [1-(4-methoxy-phenyl)-meth-(E)-ylidene]-hydrazide] | 168.3 to 169.7
4 | O=C(CCc1c[nH]c2ccccc12)N/N=C/c1ccccc1 [Compound 3A, 3-(1H-Indol-3-yl)-propionic acid [1-phenyl-meth-(E)-ylidene]-hydrazide] | 169.8 to 171.2

Second part, the molecule after the results:

Row | melting point [°C] | Structure (SMILES)
5 | 213.8 to 215.3 | O=C(CCc1c[nH]c2ccc(F)cc12)N/N=C/c1ccc(F)cc1 [Compound 3M, 3-(5-Fluoro-1H-indol-3-yl)-propionic acid [1-(4-fluoro-phenyl)-meth-(E)-ylidene]-hydrazide]
6 | 119.3 to 120.2 | O=C(CCc1c[nH]c2ccccc12)N/N=C1\CCCc2ccccc21 [Compound 3L, 3-(1H-Indol-3-yl)-propionic acid [3,4-dihydro-2H-naphthalen-(1E)-ylidene]-hydrazide]
7 | 248.6 to 249.5 | CC1=C/C(=N/NC(=O)CCc2c[nH]c3ccccc23)c2ccccc2C1=O [Compound 3N, 3-(1H-Indol-3-yl)-propionic acid [3-methyl-4-oxo-4H-naphthalen-(1Z)-ylidene]-hydrazide]
8 | 156.2 to 158.2 | C/C(=N\NC(=O)CCc1c[nH]c2ccccc12)c1ccccc1 [Compound 3K, 3-(1H-Indol-3-yl)-propionic acid [1-phenyl-eth-(E)-ylidene]-hydrazide]
9 | 201.5 to 202.5 | O=C(CCc1c[nH]c2ccccc12)N/N=C/c1ccc(Cl)cc1 [Compound 3G, 3-(1H-Indol-3-yl)-propionic acid [1-(4-chloro-phenyl)-meth-(E)-ylidene]-hydrazide]
10 | 132.8 to 134 | O=C(CCc1c[nH]c2ccc(F)cc12)N/N=C/c1ccccc1F [Compound 3J, 3-(5-Fluoro-1H-indol-3-yl)-propionic acid [1-(2-fluoro-phenyl)-meth-(E)-ylidene]-hydrazide]
11 | 146.5 to 149.4 | O=C(CCc1c[nH]c2ccccc12)N/N=C/c1cccs1 [Compound 3F, 3-(1H-Indol-3-yl)-propionic acid [1-thiophen-2-yl-meth-(E)-ylidene]-hydrazide]
12 | 171.2 to 173.9 | O=C(CCc1c[nH]c2ccc(F)cc12)N/N=C/c1ccccc1 [Compound 3I, 3-(5-Fluoro-1H-indol-3-yl)-propionic acid [1-phenyl-meth-(E)-ylidene]-hydrazide]

Target: T1, wild-type nAChR α7 receptors (Homo sapiens, UniProt P36544)
T1 construct: expressed in transfected cells; host or cells: Xenopus laevis oocytes
Experiment: Positive modulation of acetylcholine-induced currents at nAChR α7 receptors expressed in Xenopus laevis oocytes (two-electrode voltage clamp)
Assay type: cell-based
Conditions: 100 μM acetylcholine; (test-control)/control*100%; fitted to the sigmoidal logistic equation
Protocol: In this example the positive modulation of wild-type nAChR α7 receptors by Compound 3 (FIGS. 1A and 1B) was determined using nAChR α7 receptors heterologously expressed in Xenopus laevis oocytes.
The electrical current through the nAChR α7 channel was measured using conventional two-electrode voltage clamp and nAChR α7 currents were activated by applying pulses of agonist-containing solution onto the nAChR α7 expressing oocyte.
In brief, the oocytes were placed in a recording chambers and continuously superfused with an Oocyte Ringer (OR) solution containing 90 mM NaCl, 2.5 mM KCl, 2.5 mM CaCl2, 1 mM MgCl2 and 5 mM HEPES (pH adjusted to 7.4). The oocytes were clamped at −60 mV and currents were induced by applying 20 s pulses of 100 μM acetylcholine dissolved in OR. The intervals between the acetylcholine applications were 5 minutes, during which the oocytes were washed with OR. The first three applications were control applications to insure a constant response level of 100 μM acetylcholine.
The positive modulation in the presence of Compound 3 was calculated as (test-control)/control*100% and the concentration response curve for this positive modulation was fitted to the sigmoidal logistic equation: I=Imax/(1+(EC50/[compound])^n), where Imax represents the maximal modulation of the control response, EC50 is the concentration causing a half maximal response, and n is the slope coefficient.

T1 sequence (P36544 23-502): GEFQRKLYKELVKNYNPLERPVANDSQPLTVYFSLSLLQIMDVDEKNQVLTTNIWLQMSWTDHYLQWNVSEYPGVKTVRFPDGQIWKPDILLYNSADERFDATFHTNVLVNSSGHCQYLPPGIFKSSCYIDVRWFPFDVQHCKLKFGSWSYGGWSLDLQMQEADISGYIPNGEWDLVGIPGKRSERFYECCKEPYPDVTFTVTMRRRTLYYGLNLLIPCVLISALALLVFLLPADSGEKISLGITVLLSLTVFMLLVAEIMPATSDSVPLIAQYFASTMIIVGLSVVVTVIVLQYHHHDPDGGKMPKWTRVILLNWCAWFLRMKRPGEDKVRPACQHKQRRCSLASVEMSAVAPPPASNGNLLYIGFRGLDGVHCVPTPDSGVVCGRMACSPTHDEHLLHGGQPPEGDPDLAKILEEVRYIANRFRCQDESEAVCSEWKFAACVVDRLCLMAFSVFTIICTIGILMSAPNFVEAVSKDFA

Row | Structure (SMILES) | Imax (maximal modulation of the acetylcholine control response) [%]
13 | O=C(CCc1c[nH]c2ccccc12)N/N=C/c1ccc(F)cc1 [Compound 3, 3-(1H-Indol-3-yl)-propionic acid [1-(4-fluoro-phenyl)-meth-(E)-ylidene]-hydrazide] | 140

Same assay, conditions: 100 μM acetylcholine; oocytes clamped at −60 mV; 0.01-31.6 μM compound applied 30 s before and during acetylcholine; read-out: EC50 (concentration causing a half maximal response) for positive modulation of acetylcholine responses

Row | Structure (SMILES) | EC50 [µM]
14 | O=C(CCc1c[nH]c2ccccc12)N/N=C/c1ccc(F)cc1 [Compound 3, 3-(1H-Indol-3-yl)-propionic acid [1-(4-fluoro-phenyl)-meth-(E)-ylidene]-hydrazide] | 4.1

Same assay, conditions: 0.01-31.6 μM compound with 100 μM acetylcholine

Row | Structure (SMILES) | effect on acetylcholine-induced current amplitude
15 | O=C(CCc1c[nH]c2ccccc12)N/N=C/c1ccc(F)cc1 [Compound 3, 3-(1H-Indol-3-yl)-propionic acid [1-(4-fluoro-phenyl)-meth-(E)-ylidene]-hydrazide] | robust increase
